According to patent US8329693B2, “Method for the prevention of thromboembolic disorders” (Orion Corporation, priority 2004, dated 2012):

System: salt sensitive rat model
Assay: Stroke in salt sensitive rat model (summary statements)
Type: in vivo
Conditions: preventative treatment

CC(=O)Nc1ccc(C2=NNC(=O)C[C@H]2C)cc1 [metabolite (II), (R)—N-[4-(1,4,5,6-tetrahydro-4-methyl-6-oxo-3-pyridazinyl)phenyl]acetamide]
incidence and volume of brain lesions, behavioural disorders and mortality associated with stroke: markedly reduce
